Results from patent US20200231562A1, “NOVEL MACROLIDE ANTIBIOTICS” (HELMHOLTZ-ZENTRUM FÜR INFEKTIONSFORSCHUNG GMBH, priority 2014, published 2020).
≈ marks a conversion by molar mass, not a printed value. Read-outs that look alike come from different tables or passages of the source. Marks after values point to notes of the source that are not given here.

Columns and labels:
[1] = tested on: leukemic Mono Mac 6 cells; experiment: MTT assay, cytotoxic activity; type: cell-based, human; conditions: incubation 24 or 48 hours
Procedure: (§1) The cytotoxic activity of gulmirecin A (3) and gulmirecin B (4) against human cells was evaluated in the well-established MTT assay using primary monocytes from human peripheral blood as well as transformed lung epithelial cell A-549 cell and leukemic Mono Mac 6 cells. Furthermore, 3 and 4 were tested against K-562, HUVEC, and HeLa cells.
(§2) The human monocytic cell line Mono Mac 6 was cultured in RPMI 1640 medium supplemented with FCS (10%, v/v), penicillin (100 U/ml), streptomycin (100 μg/ml), insulin (10 μg/ml), oxaloacetic acid (1 mM), sodium pyruvate (1 mM), and 1× non-essential amino acids at 37° C. and 5% CO2. A-549 cells (DSM ACC-107) were cultured in DMEM high glucose (4.5 g/l) medium supplemented with FCS (10% v/v), penicillin (100 U/ml) and streptomycin (100 μg/ml) at 37° C. in a 5% CO2 incubator. K-562 (DSM ACC 10) and HeLa cells (DSM ACC 57) were grown in RPMI 1640, whereas cells of HUVEC (ATCC CRL-1730) were cultured in DMEM medium. The respective media were supplemented with ultraglutamine 1 (10 ml/l), gentamicin sulfate (500 μl/l), and FCS (10% v/v).
Cells (3×10^5 Mono Mac 6, 1×10^5 A-549 cells, or 2×10^6 monocytes per well) were seeded in a 96-well plate in the respective medium (100 μl/well). Monocytes were allowed to adhere for 1.5 hours (37° C., 5% CO2) prior to treatment. […] Then, 20 μl of thiazolyl blue tetrazolium bromide (MTT, 5 mg/ml PBS) were added, and the incubation was continued at 37° C., 5% CO2 until blue staining of the vehicle control. Formazan formation was stopped by adding 100 μl of lysis buffer (SDS, 10%, w/v in 20 mM HCl) and samples were shaken overnight. Absorbance of each well was measured at 570 nm in a Multiskan™ microplate spectrophotometer (Thermo Scientific).

[2] = tested on: transformed lung epithelial A-549 cells; experiment: MTT assay, cytotoxic activity; type: cell-based, human; conditions: incubation 24 or 48 hours
Procedure: as §1, §2
Cells (3×10^5 Mono Mac 6, 1×10^5 A-549 cells, or 2×10^6 monocytes per well) were seeded in a 96-well plate in the respective medium (100 μl/well). Monocytes were allowed to adhere for 1.5 hours (37° C., 5% CO2) prior to treatment. Test compounds (0.3% DMSO as vehicle) were added to each well and samples were incubated for 48 hrs. Then, 20 μl of thiazolyl blue tetrazolium bromide (MTT, 5 mg/ml PBS) were added, and the incubation was continued at 37° C., 5% CO2 until blue staining of the vehicle control. Formazan formation was stopped by adding 100 μl of lysis buffer (SDS, 10%, w/v in 20 mM HCl) and samples were shaken overnight. Absorbance of each well was measured at 570 nm in a Multiskan™ microplate spectrophotometer (Thermo Scientific).

[3] = tested on: primary monocytes from human peripheral blood; experiment: MTT assay, cytotoxic activity; type: cell-based; conditions: incubation 24 or 48 hours
Procedure: as §1
Human primary monocytes were isolated from leukocyte concentrates, obtained from the Institute of Transfusion Medicine at the University Hospital Jena, Germany. The concentrates were prepared from the blood of healthy adult human donors who had not taken any anti-inflammatory medication for the 10 days prior to blood donation, as described. In brief, freshly withdrawn peripheral blood was pretreated with citrate-phosphate-dextrose solution as anticoagulant and processed with the 2C+ protocol of the Atreus Whole Blood Processing System (Terum BCT). Peripheral blood mononuclear cells (PBMC) were isolated by dextran sedimentation and centrifugation on LSM 1077 lymphocyte separation medium (PAA Laboratories). For isolation of monocytes, the PBMC were washed twice with ice-cold phosphate buffered saline (PBS) and plated (density 2×10^7 cells/ml) in culture flasks (Greiner Bio-One) containing PBMC medium (RPMI 1640 medium supplemented with 100 U/ml penicillin, 100 μg/ml streptomycin and 2 mM L-glutamine) for 1.5 hours at 37° C., 5% CO2. Non-adherent cells were removed; adherent monocytes were scraped, washed with ice-cold PBS and resuspended in ice-cold PBS with a purity of >85%, defined by forward- and side-light scatter properties and detection of the CD14 surface molecule by flow cytometry (BD FACS Calibur). […]
Cells (3×10^5 Mono Mac 6, 1×10^5 A-549 cells, or 2×10^6 monocytes per well) were seeded in a 96-well plate in the respective medium (100 μl/well). […] Absorbance of each well was measured at 570 nm in a Multiskan™ microplate spectrophotometer (Thermo Scientific).

[4] = tested on: S. aureus N315 mutant Mt50DscA.1; experiment: Susceptibility (MIC) of Disciformycin A-resistant mutant; type: cell-based; conditions: Staphylococcus aureus
[5] = tested on: S. aureus N315 mutant Mt50DscA.5; experiment: as above; type: cell-based; conditions: Staphylococcus aureus
[6] = tested on: S. aureus N315 mutant Mt50DscA.6; experiment: as above; type: cell-based; conditions: Staphylococcus aureus
[7] = tested on: S. aureus N315 wildtype (WT); experiment: Susceptibility (MIC) of S. aureus N315 wildtype; type: cell-based; conditions: Staphylococcus aureus
[8] = tested on: S. aureus N315 mutant Mt50DscA.3; experiment: Susceptibility (MIC) of Disciformycin A-resistant mutant; type: cell-based; conditions: Staphylococcus aureus
[9] = tested on: Pseudomonas aeruginosa DSM 50071; experiment: MIC by microbroth dilution; type: cell-based; conditions: 16 h, 30° C., n.i. = no inhibition up to 67 μg/ml
Procedure: (§3) Bacterial strains. Bacterial wildtype strains used in susceptibility assays were either part of HZI's strain collection or purchased from the German Collection of Microorgansims and Cell Cultures (Deutsche Sammlung von Mikroorganismen und Zellkulturen, DSMZ).
(§4) Minimum inhibitory concentration (MIC) was determined by microbroth dilution. In brief, overnight cultures of bacteria (EBS medium) were diluted to OD600 0.01. Disciformycin A (1) or B (2) dissolved in DMSO was added directly to the cultures in 96-well plates (Sarstedt, flat bottom) in duplicate and the compound was tested in serial dilution. […] After 16 h incubation at 900 rpm and 30° C. on a microplate shaker (Titramax, Heidolph) absorbance at 600 nm was measured using a microplate reader (POLARstar Omega, BMG Labtech). MIC values were determined by sigmoidal curve fitting.

[10] = tested on: S. aureus N315 mutant Mt50DscA.8; experiment: Susceptibility (MIC) of Disciformycin A-resistant mutant; type: cell-based; conditions: Staphylococcus aureus
[11] = tested on: S. aureus N315 mutant Mt50DscA.11; experiment: as above; type: cell-based; conditions: Staphylococcus aureus
[12] = tested on: S. aureus N315 Mt50DscA.9; experiment: as above; type: cell-based; conditions: Staphylococcus aureus
[13] = tested on: S. aureus Newman in PMA-differentiated human THP-1 cell line (macrophages); experiment: Intra-macrophage activity; type: cell-based; conditions: at 8×MIC, 18 h, MOI 10, cfu counting
Text: The PMA-differentiated human THP-1 cell line (macrophages) was used as cellular host for infection with S. aureus Newman at an MOI (multiplicity of infection) of 10. […] Intracellular bacteria were recovered and serial dilutions were streaked out on CASO-Agar for cfu counting. The reference drug rifampicin reduced the number of intracellular bacteria by ca. 4 logs (at 8×MIC).

[14] = tested on: S. aureus N315 mutant Mt50DscA.10; experiment: Susceptibility (MIC) of Disciformycin A-resistant mutant; type: cell-based; conditions: Staphylococcus aureus
[15] = tested on: S. aureus N315 mutant Mt50DscA.4; experiment: as above; type: cell-based; conditions: Staphylococcus aureus
[16] = tested on: S. aureus N315 mutant Mt50DscA.2; experiment: as above; type: cell-based; conditions: Staphylococcus aureus
[17] = tested on: Staphylococcus aureus (MRSA) DSM-11822; experiment: MIC by microbroth dilution; type: cell-based; conditions: Staphylococcus aureus, 16 h
Procedure: as §3, §4

[18] = tested on: Mycobacterium sp. DSM 43270; experiment: MIC by microbroth dilution; type: cell-based; conditions: 16 h, 30° C., n.i. = no inhibition up to 67 μg/ml
Procedure: as §3, §4

[19] = tested on: Escherichia coli DSM 1116; experiment: MIC by microbroth dilution; type: cell-based; conditions: 16 h, 30° C., n.i. = no inhibition up to 67 μg/ml
Procedure: as §3, §4

[20] = tested on: Nocardioides simplex DSM 20130; experiment: MIC by microbroth dilution; type: cell-based; conditions: 16 h, 30° C., n.i. = no inhibition up to 67 μg/ml
Procedure: as §3, §4

[21] = tested on: Micrococcus luteus DSM 20030; experiment: MIC by microbroth dilution; type: cell-based; conditions: 16 h, 30° C., n.i. = no inhibition up to 67 μg/ml
Procedure: as §3, §4

[22] = tested on: Paenibacillus polymyxa DSM 36; experiment: MIC by microbroth dilution; type: cell-based; conditions: 16 h, 30° C., n.i. = no inhibition up to 67 μg/ml
Procedure: as §3, §4

[23] = tested on: Chromobacterium violaceum DSM 30191; experiment: MIC by microbroth dilution; type: cell-based; conditions: 16 h, 30° C., n.i. = no inhibition up to 67 μg/ml
Procedure: as §3, §4

[24] = tested on: Staphylococcus aureus DSM 346; experiment: MIC by microbroth dilution; type: cell-based; conditions: 16 h, 30° C., n.i. = no inhibition up to 67 μg/ml
Procedure: as §3, §4

[25] = tested on: Mycobacterium diemhoferi DSM 43524; experiment: MIC by microbroth dilution; type: cell-based; conditions: 16 h, 30° C., n.i. = no inhibition up to 67 μg/ml
Procedure: as §3, §4

[26] = tested on: Bacillus subtilis DSM 10; experiment: MIC by microbroth dilution; type: cell-based; conditions: 16 h, 30° C., n.i. = no inhibition up to 67 μg/ml
Procedure: as §3, §4

Compound: CN[C@@H]1C[C@H]2O[C@@](C)([C@@H]1OC)n1c3ccccc3c3c4c(c5c6ccccc6n2c5c31)C(=O)NC4 [staurosporine, reference compound]
- cell viability / cytotoxicity (MTT) [1]: highly cytotoxic
- cell viability / cytotoxicity (MTT) [2]: highly cytotoxic
- cell viability / cytotoxicity (MTT) [3]: highly cytotoxic

Compound: C/C=C(/C)[C@H]1C/C=C(\C)[C@@H](O[C@H]2O[C@H](CO)[C@@H](O)[C@@H]2O)[C@H](OC(=O)CC(C)C)C(=O)C[C@@H](SC)[C@H](C)C(=O)O1 [Compound 6, disciformycin D]
- MIC [4]: 32000 ng/mL (≈ 55900 nM)
- MIC [5]: 4000 ng/mL (≈ 6980 nM)
- MIC [6]: 32000 ng/mL (≈ 55900 nM)
- MIC [7]: 500 ng/mL (≈ 873 nM)
- MIC [8]: 64000 ng/mL (≈ 112000 nM)

Compound: Gentamycin [reference compound]
- MIC [9]: 42.0^[b] μg/ml

Compound: C/C=C(/C)[C@H]1C/C=C(\C)[C@@H](O[C@H]2O[C@H](CO)[C@@H](O)[C@@H]2O)[C@H](OC(=O)CC(C)C)C(=O)C[C@@H](OC)[C@H](C)C(=O)O1 [Compound 5, disciformycin C]
- MIC [4]: > 64000 ng/mL
- MIC [5]: 32000 ng/mL (≈ 57500 nM)
- MIC [6]: > 64000 ng/mL
- MIC [7]: 4000 ng/mL (≈ 7190 nM)
- MIC [8]: > 64000 ng/mL

Compound: CO[C@H]1/C=C/O[C@@]2(C)Oc3c(C)c(O)c4c(O)c(c(/C=N/N5CCN(C)CC5)c(O)c4c3C2=O)NC(=O)/C(C)=C\C=C\[C@H](C)[C@H](O)[C@@H](C)[C@@H](O)[C@@H](C)[C@H](OC(C)=O)[C@@H]1C [rifampicin, reference compound]
- MIC [4]: 3 ng/mL (≈ 3.65 nM)
- MIC [10]: 1 ng/mL (≈ 1.22 nM)
- MIC [5]: 1 ng/mL (≈ 1.22 nM)
- MIC [11]: 1 ng/mL (≈ 1.22 nM)
- MIC [6]: 1 ng/mL (≈ 1.22 nM)
- MIC ([7]; S. aureus N315 WT, read-out: MIC): 3 ng/mL (≈ 3.65 nM)
- MIC [12]: 1 ng/mL (≈ 1.22 nM)
- reduction of the number of intracellular bacteria [13]: ca. 4 logs
- MIC [14]: 1 ng/mL (≈ 1.22 nM)
- MIC [8]: 3 ng/mL (≈ 3.65 nM)
- MIC [15]: 1 ng/mL (≈ 1.22 nM)
- MIC [16]: 5 ng/mL (≈ 6.08 nM)

Compound: CN[C@H](CC(C)C)C(=O)N[C@H]1C(=O)N[C@@H](CC(N)=O)C(=O)N[C@H]2C(=O)N[C@H]3C(=O)N[C@H](C(=O)N[C@H](C(=O)O)c4cc(O)cc(O)c4-c4cc3ccc4O)[C@H](O)c3ccc(c(Cl)c3)Oc3cc2cc(c3O[C@@H]2O[C@H](CO)[C@@H](O)[C@H](O)[C@H]2O[C@H]2C[C@](C)(N)[C@H](O)[C@H](C)O2)Oc2ccc(cc2Cl)[C@H]1O [Vancomycin, reference compound]
- MIC [17]: 830 ng/mL (≈ 573 nM)

Compound: CN(C)[C@@H]1C(O)=C(C(N)=O)C(=O)[C@@]2(O)C(O)=C3C(=O)c4c(O)cccc4[C@@](C)(O)[C@H]3[C@H](O)[C@@H]12.Cl [Oxytetracyclin hydrochloride, reference compound]
- MIC [18]: 0.52^[a] μg/ml
- MIC [19]: 0.83^[a] μg/ml
- MIC [20]: 3.3^[a] μg/ml
- MIC [21]: 0.42^[a] μg/ml
- MIC [22]: 1.7^[a] μg/ml
- MIC [23]: 0.83^[a] μg/ml
- MIC [24]: 0.21^[a] μg/ml
- MIC [25]: ≤0.052^[a] μg/ml
- MIC [26]: 4.2^[a] μg/ml
